Columns and labels:
[1] = target: horse serum BChE (Equus caballus, UniProt P81908); assay: biochemical; assay type: biochemical; details: n = 3; for Enzyme inhibition (% ± SD) at 10 mM, BChE / inhibition at 10000 µM: at 10 mM; for inhibition at 10000 µM: read-out: Enzyme inhibition (% ± SD) at 10 mM, BChE
[2] = test system: scopolamine-induced amnesic mice; assay: Passive avoidance test in scopolamine-induced amnesic mice; assay type: in vivo

horse serum BChE, sequence (P81908 whole entry): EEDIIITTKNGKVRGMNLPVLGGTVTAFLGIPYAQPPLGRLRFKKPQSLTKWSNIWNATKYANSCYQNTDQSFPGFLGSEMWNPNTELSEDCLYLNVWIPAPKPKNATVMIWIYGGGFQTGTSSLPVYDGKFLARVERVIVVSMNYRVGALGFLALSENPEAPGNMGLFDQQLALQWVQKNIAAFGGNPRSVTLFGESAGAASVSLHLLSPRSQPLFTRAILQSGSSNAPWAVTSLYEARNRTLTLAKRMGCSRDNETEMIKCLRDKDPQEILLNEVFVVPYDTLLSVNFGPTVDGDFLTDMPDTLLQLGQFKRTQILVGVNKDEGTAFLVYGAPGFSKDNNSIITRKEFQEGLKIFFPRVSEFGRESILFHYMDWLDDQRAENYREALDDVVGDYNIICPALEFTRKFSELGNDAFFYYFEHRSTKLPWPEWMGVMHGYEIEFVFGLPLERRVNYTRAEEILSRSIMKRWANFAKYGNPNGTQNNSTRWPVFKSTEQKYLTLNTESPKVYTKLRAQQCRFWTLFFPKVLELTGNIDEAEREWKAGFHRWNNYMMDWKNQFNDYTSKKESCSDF

O=c1cc(-c2ccc(O)c(-c3c(O)cc(O)c4c(=O)cc(-c5ccc(O)cc5)oc34)c2)oc2cc(O)cc(O)c12 [Amentoflavone]
Enzyme inhibition (% ± SD) at 10 mM, BChE [1]: no inhibition | inhibition at 10000 µM ([1]; ± SD): < 0%

O=c1cc(-c2ccc(O)cc2)oc2cc(O)cc(O)c12 [Apigenin]
inhibition at 10000 µM ([1]; ± SD): < 0%

O=C(/C=C/c1ccc(O)c(O)c1)O[C@@H]1C[C@](O)(C(=O)O)C[C@@H](O)[C@H]1O [Chlorogenic acid]
inhibition at 10000 µM ([1]; ± SD): 25.4 ± 1.72%

O=c1oc2c(O)c(O)cc3c(=O)oc4c(O)c(O)cc1c4c23 [Ellagic acid]
Enzyme inhibition (% ± SD) at 10 mM, BChE [1]: no inhibition | inhibition at 10000 µM ([1]; ± SD): < 0%

O=c1c(O)c(-c2ccc(O)c(O)c2)oc2cc(O)ccc12 [Fisetin]
inhibition at 10000 µM ([1]; ± SD): 76.2 ± 2.48% | IC50 ([1]; ± SD): 9.62 mM

O=C(O)c1cc(O)c(O)c(O)c1 [Gallic acid]
inhibition at 10000 µM ([1]; ± SD): 84.4 ± 2.25% | Mean latency time (min) ± SEM (2nd day) ([2]; 20 mg/kg i.p., scopolamine 1 mg/kg i.p. 30 min later, 24 h after scopolamine, cutoff 9 min): 6.76 ± 1.11 min | Mean latency time (min) ± SEM (1st day) ([2]; acquisition day, before treatment, group given 20 mg/kg i.p., n = 8): 0.29 ± 0.03 min

O=c1c(-c2ccc(O)cc2)coc2cc(O)cc(O)c12 [Genistein]
inhibition at 10000 µM ([1]; ± SD): < 0%

O=c1c(O)c(-c2ccc(O)cc2)oc2cc(O)cc(O)c12 [Kaempferol]
inhibition at 10000 µM ([1]; ± SD): < 0%

O=c1cc(-c2ccc(O)c(O)c2)oc2cc(O)cc(O)c12 [Luteolin]
Enzyme inhibition (% ± SD) at 10 mM, BChE [1]: no inhibition | inhibition at 10000 µM ([1]; ± SD): < 0%

Oc1ccc(-c2[o+]c3cc(O)cc(O)c3cc2O)cc1 [Pelargonidin]
inhibition at 10000 µM ([1]; ± SD): 25.3 ± 4.13%

O=c1c(O)c(-c2ccc(O)c(O)c2)oc2cc(O)cc(O)c12 [Quercetin]
inhibition at 10000 µM ([1]; ± SD): 99.4 ± 0.76%

COc1cc(C(=O)O)ccc1O [Vanillic acid]
inhibition at 10000 µM ([1]; ± SD): 35.1 ± 3.21%

From article PMC12537693, “3-Hydroxytyrosol as a phenolic cholinesterase inhibitor with antiamnesic activity: a multimethodological study of selected plant phenolics” (Frontiers in Pharmacology, 2025)
